What was measured:
[1] = 0.8 mg/Kg injected as free staurosporine; 'would very likely be'; cited from earlier work
U87 cells = assay: In vivo anti-tumor activity against very large U87 flank tumors (FIG. 9); conditions: treatment over two weeks
[2] = Reverse pH gradient encapsulation efficiency of staurosporine in liposomes
Procedure: The dried lipid film was hydrated with a buffer containing ammonium phosphate, ammonium sulfate, sodium phosphate, or sodium sulfate (300 mM, 7.4) and vortexed for 1 minute to remove any adhering lipid film. Sonication in a bath sonicator (ULTRAsonik 28X) for 1 minute at room temperature produced multilamellar vesicles (MLV). ME-Vs were then sonicated with a Ti-probe (Branson 450 sonifier) for 2 minutes to produce small unilamellar vesicles (SUV), indicated by the formation of a translucent solution. Extrusion through a 100 nm pore size polycarbonate filter (Whatman) was the final stage of a stepwise series of extrusions to reduce SUV size.
The prepared liposomes with internal buffer at pH 3 or 7.4 were passed through a Sephadex G-50 column equilibrated with HEPES buffered saline (FIBS; 20 mM HEPES, 150 mM NaCl, pH 7.4) to exchange the external buffer.

[3] = Acute toxicity of free staurosporine; conditions: 5 mg/Kg free staurosporine

SMILES: CN[C@@H]1C[C@H]2O[C@@](C)([C@@H]1OC)n1c3ccccc3c3c4c(c5c6ccccc6n2c5c31)C(=O)NC4 [free staurosporine, (9S, 10R, 11R, 13R)-2,3,10,11,12,13-Hexahydro-10-methoxy-9-methyl-11-(methylamino)-9,13-epoxy-1H,9H-diindolo[1,2,3-gh:3′,2′r-lm]pyrrolo[3,4-j][1,7]benzodiazonin-1-one]
- Fraction cleared after only one circulatory pass [1]: 99%
- Body weight (U87 cells): body weight did decline
- Tumor growth (U87 cells; tumors 180-200 mm^3 at start, relative to PBS, p<0.004 for liposomal): no demonstrable effect
- Increase of encapsulation when a pH gradient existed ([2]; internal buffer pH 7.4 versus pH 3, external buffer constant at pH 3): 14 fold
- Encapsulation rate ([2]; internal pH 5, external pH 7.4): very low encapsulation rates
- Liposomal loading capacity, peak value ([2]; lipid to drug ratio 11.11 (mole/mole)): 70%
- Acute lethality [3]: acutely lethal

— patent US10258629B2, “Liposomal drug encapsulation” (priority 2014, dated 2019)
